In patent US20240075032A1, “A Pharmaceutical Composition for Treating Cancer” (XUANZHU BIOPHARMACEUTICAL CO., LTD., priority 2020, published 2024):
pIC50: −log10 of the molar value.

Legend:
MCF7 = assay: Cell proliferation detection using BrdU method (MCF7); type: cell-based; settings: Homo sapiens, 48 hours, fixed-ratio combination 640:3.2 nM series, concentration axis = compound of Formula (I), read-out: Cytological activity on MCF7 in vitro (IC50)
Description: Experimental method: Cell proliferation detection using BrdU method (BrdU cell proliferation test kit, PerkinElmer Company) • 1. Reagent and compound preparation • 1.1. Preparation of 1-fold washing solution:
A washing solution with a mother liquor concentration of 25 times was diluted into 1-fold washing solution with ultrapure water. • 1.2. Preparation of 1-fold detection antibody solution:
A BrdU-Eu detection antibody with a mother liquor concentration of 200 times was diluted into 1-fold detection antibody solution with a detection antibody diluent. • 1.3. 100-fold BrdU labeling solution:
A BrdU stock solution with a mother liquor concentration of 1000 times was diluted into 100-fold BrdU labeling solution with a culture medium corresponding to cells. • 1.4. […]
MCF7 medium: MEM+10% FBS+1% bispecific antibody+10 μg/mL human recombinant insulin • 2. […] Then resuspended with a corresponding culture medium, counted and adjustment-inoculated in a 96-well plate, the MCF7 cells were inoculated according to 8000 cells/well/100 μL, placed and cultured in a 37° C. cell incubator, and after the cells were adhered to a wall, it was replaced with a serum-free medium. • 2.2. […]
• 2.3. […] 200 μL of time-resolved immunofluorescence induction solution was added per well, and incubated at the room temperature for 15 minutes, and the fluorescence value (Flu value) was detected by a microplate reader. • 3.

[1] = test system: MCF7 human xenograft model; assay: Tumor growth inhibition in MCF7 human xenograft model; type: in vivo, Balb/c female nude mouse; settings: Formula (I) 30 mg/kg orally once a day 21 days, fulvestrant 5 mg/mouse subcutaneously once a week 3 weeks
Description: 1. Tumor Inoculating and Grouping
Estrogen was injected subcutaneously on one day before animal inoculation, twice a week, and 40 μg/20 μL for each time (estrogen specification: 4 mg/2 mL) until the experiment was ended. MCF7 cells resuspended by a serum-free medium were inoculated subcutaneously on the right rib of a Balb/c female nude mouse at 1.5×10^7+matrigel/0.2 mL (cell: matrigel=1:1). While the tumor growed to a volume mean value of 163 mm^3, it was grouped and administered. The group of the compound of Formula (I) was administered orally once a day at an dose of 30 mg/kg for 21 consecutive days; the group of the fulvestrant was administered subcutaneously once a week, 5 mg per animal, for 3 consecutive weeks; and while the compound of Formula (I) was used in combination with the fulvestrant, the same administration mode was used as while used alone.
2. Measurement and Experimental Indicator of Tumor
The tumor volume was measured twice a week with a vernier caliper, the long diameter and the short diameter of the tumor were measured, and its volume calculation formula is: volume=0.5×long diameter×short diameter^2. The relative tumor volume RTV and relative tumor volume increase ratio (T/C) were calculated according to measurement results. […]

Question: With `C[C@]12CC[C@@H]3c4ccc(O)cc4C[C@@H](CCCCCCCCC[S+]([O-])CCCC(F)(F)C(F)(F)F)[C@H]3[C@@H]1CC[C@@H]2O` (stereo partly drawn) [Fulvestrant, fulvestrant] as the molecule, how does the pIC50 (MCF7) read?
Answer: 9.66

Question: What about the “TGI(%)” value ([1]; combination same modes) of the same molecule?
Answer: 55.9%

Question: What about the “Tumor volume at the end of administration” value ([1]; mean ± standard error, start about 163 mm^3, solvent control 468 ± 37) of the same molecule?
Answer: 216 ± 44 mm^3
